# From patent US7524816B2, “Peptides and supported peptides for treating skin diseases” (Genencor International, Inc., priority 2003, dated 2009)
# Positions of bridges follow the written chain, without caps; N, C: chain ends. Residues, ends and D or L forms follow the SMILES beside them.
# T1: Human VEGF165 (Homo sapiens, UniProt P15692)
# T1 construct: purchased Biosource
# T1 sequence (P15692 27-191 isoform P15692-4): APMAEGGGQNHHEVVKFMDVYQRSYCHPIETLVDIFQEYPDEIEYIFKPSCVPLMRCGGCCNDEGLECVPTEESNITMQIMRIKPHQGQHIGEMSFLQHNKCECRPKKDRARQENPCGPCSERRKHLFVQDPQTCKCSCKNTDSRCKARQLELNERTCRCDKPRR
# B1: BBI-VEGF1: Bowman-Birk inhibitor fusion with one binding loop replaced by anti-VEGF peptide (protein)
# chain: DDESSKPCCDQCACYNLYGWTCRCSDMRLNSCHSACKSCICALSYPAQCFCVDITDFCYEPCKPSEDDKEN
# modifications: synthetic BBI-VEGF1 fusion protein
# What was measured:
# Human VEGF165 [1] = target: T1, Human VEGF165; test: BIAcore surface plasmon resonance binding analysis of VEGF binding peptides
# Method: FIG. 3 provides results of a BIACORE binding analysis of VEGF binding peptides. Binding curves were obtained as described in the Examples. […]
# In this Example, experiments conducted to assess the affinities of the peptides for VEGF are described. Affinities of the peptides for VEGF were measured using a BIAcore™-3000 surface plasmon resonance system (Biacore). A CM5 sensor chip was conditioned with 50 mM NaOH, 0.1% HCl, 0.1% SDS, and 0.08% H3PO4, and activated for covalent coupling of […] using N-ethyl-N′-(3-dimethylaminopropyl)-carbodiimide hydrochloride (EDC) and N-hydroxysuccinimide (NHS) according to the supplier's instructions (Biacore). Human VEGF165 (Biosource) was diluted to 5 μg/ml in 20 mM sodium acetate, pH 4.8 and injected at a flow rate of 2 μl/min to achieve approximately 1000 to 6000 response units (RU) of coupled protein. TNF[…] (human TNF[…], Biosource, Int., Camarillo, Calif.) was similarly coupled to the CM5 sensor chip to approximately 850 to 3500 RU in the reference lane. A solution of 1 M ethanolamine was injected as a blocking agent. In some experiments, an additional solution of EDC and NHS were injected to improve baseline stability and a solution of 1 M ethanolamine injected as a blocking agent. The reference lane is activated with EDC and NHS and blocked with ethanolamine.
# Peptides were synthesized using standard FMOC chemistry, purified by reverse phase HPLC to >95% purity (SynPep), and stored at 10 mg/mL in DMSO. For kinetic measurements, twofold serial diluted peptides in HBS-EP buffer, 0.01 M HEPES pH 7.4, 0.15 M NaCl, 3 mM EDTA, 0.005% Surfactant P20 (Biacore), were injected at 25° C. at a flow rate of 20 μL/min. Two-fold serial diluted DMSO samples and buffer samples were also injected for background subtraction. Kinetic parameters were calculated using BIAevaluation 3.1 software.
# [2] = tested on: human umbilical vein endothelial cells (HUVEC); test: In vitro HUVEC proliferation assay (MTS) of hVEGF inhibitory peptides; format: cell-based; settings: 10 ng/ml VEGF, 48 hrs
# Method: In this Example, experiments conducted to determine the anti-proliferative activity of anti-VEG peptides are described. The antiproliferative activity of VEGF inhibitory peptides was determined using human umbilical vein endothelial cells (HUVEC) as follows. An early passage (less than six) of HUVEC was seeded in 96-well plates at 5000 cells per well and starved for 18 hrs in 200 μl EBM medium (Cambrex) without growth factors and supplemented with 0.5% FBS, at 37° C. with 5% CO2. The medium was replaced with 180 μl of growth medium containing EBM medium with 5% fetal bovine serum and 1% DMSO. Then, 20 μl of VEGF preincubated for one hour with varying peptide concentrations (the final DMSO concentration of all the wells was 1%) were added to the wells for a final VEGF concentration of 10 ng/ml. Human VEGF antibody (R & D Systems) was used as a positive control. Cells with 0.31 to 20 ng/ml concentrations of VEGF alone in the growth medium were used to construct a standard growth curve. The cells were further incubated for 48 hrs, and the cell proliferation was measured using an MTS assay (CellTiter 96 Aqueous One Solution Cell Proliferation Assay Kit; Promega). Then, 40 μl of the MTS tetrazolium solution was added to each well and after 3 and 4 hours incubation, the plates were read at 490 nm. The absorption of media alone was subtracted from all data points.
# [3] = Repeat insult patch test (RIPT) on human skin; format: in vivo; settings: 0.5% (w/v) in deionized water/butylene glycol; approximately 0.2 mL; 200 human volunteers
# Method: In this Example, experiments conducted to determine the patch test result for anti-VEGF peptides are described. Samples of the aVEGF peptide CK37281 dosed at 0.5% (w/v) were formulated in a base formulation containing deionized water/butylene glycol. Approximately 0.2 mL of the formulation was applied to 200 human volunteers in a repeated insult patch test according to procedures designed by Clinical Research Laboratories, Inc. (Piscataway, N.J.).
# Human VEGF165 [4] = target: T1, Human VEGF165; test: BIAcore binding analysis of BBI-VEGF constructs; settings: trypsin and chymotrypsin coupled in remaining lanes
# Method: In this Example, experiments conducted to determine the binding affinity of constructs produced as indicated in Example 9 are described. Affinities of BBI-VEGF constructs for VEGF were measured using BLAcore-3000 surface plasmon resonance (Biacore). A CM5 sensor chip was conditioned with 50 mM NaOH and activated for covalent coupling of VEGF using N-ethyl-N′-3-dimethylaminopropyl)-carbodiimide hydrochloride (EDC) and N-hydroxysuccinimide (NHS) according to the supplier's instructions (Biacore). VEGF (human VEGF165, Biosource) was diluated to 5 μg/mL in 20 mM sodium acetate, pH 4.8, and injected at a flow rate of 2 μL/min to achieve approximately 1000 to 6000 response units (RU) of coupled protein. Trypsin and chymotrypsin were similarly coupled to the CM5 sensor chip to approximately 850 to 3500 RU in remaining lanes. A solution of 1 M ethanolamine was injected as a blocking agent.
# [5] = two state reaction model with conformation change
Molecule,"kd1 (Human VEGF165 [1]; 1:1 Langmuir binding fit, 1000 RU VEGF, 850 RU TNF)",ka2 (Human VEGF165 [1]; [5]),kd1 (Human VEGF165 [1]; [5]),IC50 antiproliferative activity [2],dermal irritation or sensitization [3],binding to VEGF (Human VEGF165 [4]),binding to VEGF (Human VEGF165 [4]; listed as BBI-VEGF)
"CC[C@H](C)[C@@H]1NC(=O)[C@H](CC(=O)O)NC(=O)[C@@H](NC(=O)[C@H](CC(N)=O)NC(=O)[C@@H]2CCCN2C(=O)[C@H](CCC(=O)O)NC(=O)[C@@H](N)C(C)C)CSSC[C@@H](C(=O)N[C@@H](Cc2ccccc2)C(=O)N[C@@H](CCC(=O)O)C(=O)N[C@@H](CCCNC(=N)N)C(=O)N[C@@H](CC(C)C)C(N)=O)NC(=O)[C@H](CCC(=O)O)NC(=O)[C@H](Cc2c[nH]c3ccccc23)NC(=O)[C@H](CCC(=O)O)NC(=O)[C@H](Cc2c[nH]c3ccccc23)NC(=O)[C@H](CCSC)NC(=O)[C@H](C(C)C)NC(=O)[C@H](Cc2c[nH]cn2)NC1=O [v114, reference compound] (H-VEPNCDIHVMWEWECFERL-NH2; disulfide 5-15; N-terminus and C-terminus assumed)",0.167 s⁻¹,–,–,–,–,–,–
CC(C)C[C@@H]1NC(=O)[C@H](CC(N)=O)NC(=O)[C@H](Cc2ccc(O)cc2)NC(=O)[C@@H](NC(=O)[C@H](C)N)CSSC[C@@H](C(=O)NCC(=O)NCC(=O)NCC(=O)O)NC(=O)[C@H]([C@@H](C)O)NC(=O)[C@H](Cc2c[nH]c3ccccc23)NC(=O)CNC(=O)[C@H](Cc2ccc(O)cc2)NC1=O [CK37281] (H-ACYNLYGWTCGGG-OH; disulfide 2-10 (inferred); N-terminus and C-terminus assumed),–,0.0015 s⁻¹,0.0122 s⁻¹,in the micromolar range,no dermal irritation or sensitization,–,–
"CC(C)C[C@@H]1NC(=O)[C@H](CC(N)=O)NC(=O)[C@@H](NC(=O)[C@H](C)N)CSSC[C@@H](C(=O)NCC(=O)NCC(=O)NCC(=O)O)NC(=O)[C@H](Cc2c[nH]c3ccccc23)NC(=O)[C@H](Cc2ccccc2)NC(=O)[C@H](Cc2c[nH]cn2)NC(=O)[C@@H]2CCCN2C(=O)[C@H](Cc2c[nH]c3ccccc23)NC1=O [CK37283, NLWPHFW]",–,0.00634 s⁻¹,0.318 s⁻¹,in the micromolar range,–,–,–
B1,–,–,–,–,–,binds specifically to VEGF,Selective binding affinity to VEGF
